Among the data in patent publication US8163909B2, “Substituted hydroxyethyl amine compounds as beta-secretase modulators and methods of use” (Amgen Inc., priority 2007, dated 2012) are IC50 values, retold here.

The target of experiment [1] is Beta Secretase enzyme (BACE) (Homo sapiens, UniProt P56817). The experiment is described as follows: In vitro enzymatic BACE FRET (fluorescence resonance energy transfer) assay.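 Also: fluorescence read after 1 h with 50 nM quenched peptide substrate spanning the BACE cleavage site, in pH 4.2 acetate buffer containing 10% DMSO and nonionic detergent.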 Format: biochemical.
Sequence of Beta Secretase enzyme (BACE) (P56817 46-501): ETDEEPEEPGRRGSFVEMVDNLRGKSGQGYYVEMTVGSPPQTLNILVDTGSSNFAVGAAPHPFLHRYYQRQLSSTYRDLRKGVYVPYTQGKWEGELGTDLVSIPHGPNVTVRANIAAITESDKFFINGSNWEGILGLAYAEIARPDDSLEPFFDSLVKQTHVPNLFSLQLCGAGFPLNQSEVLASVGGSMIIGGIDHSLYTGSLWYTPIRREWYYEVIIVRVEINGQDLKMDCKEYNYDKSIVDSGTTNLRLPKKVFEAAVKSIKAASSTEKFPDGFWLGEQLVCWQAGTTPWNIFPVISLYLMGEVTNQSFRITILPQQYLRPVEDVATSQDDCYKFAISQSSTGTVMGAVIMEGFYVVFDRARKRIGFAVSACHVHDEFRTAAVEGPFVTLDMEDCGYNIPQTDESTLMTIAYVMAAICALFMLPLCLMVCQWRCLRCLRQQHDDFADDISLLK
Experiment [2] has as its system Aβ40 in conditioned medium of cells stably expressing Amyloid Precursor Protein (APP). Kind of experiment: In vitro BACE cell-based assay (Aβ40 in conditioned medium, sandwich ELISA).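 Also: compounds added as a dilution series, secreted peptide quantified by europium time-resolved fluorescence readout, potency fitted from percent of control versus compound concentration.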
[3] abbreviates: BACE enzyme FRET assay, read-out: BACE1 FRET assay (IC50).
[4] abbreviates: Homo sapiens, HEK293, HEK cells, cell-based assay, read-out: HEK cell assay (IC50).
Setting [5] is: BACE enzyme assay, read-out: BACE1 FRET assay (IC50).
Where [6] appears, read: Table 1, read-out: BACE1 FRET assay.
[7] abbreviates: Homo sapiens, HEK293, Table 1, HEK cells, read-out: HEK cell assay.
Setting [8] is: HEK cells, cell-based assay, read-out: HEK cell assay (IC50).

pIC50: −log10 of the molar value. Read-outs that look alike come from different tables or passages of the source.

With `COCC(=O)N[C@@H](Cc1ccc2c(c1)OCO2)[C@H](O)CN[C@H]1CC(C)(C)Cc2sc(CC(C)(C)C)cc21` [compound 187], the figures for the pIC50 in experiment [1] (setting [3]) and in experiment [2] (setting [4]) were 7.70 and 7.20, respectively.

As to `CC(=O)NC(Cc1ccc2c(c1)OCO2)C(O)CNC1CC2(CC(O)C2)Oc2ncc(CC(C)C)cc21` [compound 247, N-((1S,2R)-1-(1,3-benzodioxol-5-ylmethyl)-2-hydroxy-3-(((1s,3S,4′S)-3-hydroxy-6′-(2-methylpropyl)-3′,4′-dihydrospiro[cyclobutane-1,2′-pyrano[2,3-b]pyridin]-4′-yl)amino)propyl)acetamide], the pIC50 in experiment [1] (setting [3]) was 8.17; in experiment [2] (setting [4]), 7.88.

As for `COC(C)C(=O)NC(Cc1ccc2c(c1)OCO2)C(O)CNC1CC2(CC(F)C2)Oc2ncc(CC(C)(C)C)cc21` [compound 241, (2R)—N-((1S,2R)-1-(1,3-benzodioxol-5-ylmethyl)-3-(((1s,3S,4′S)-6′-(2,2-dimethylpropyl)-3-fluoro-3′,4′-dihydrospiro[cyclobutane-1,2′-pyrano[2,3-b]pyridin]-4′-yl)amino)-2-hydroxypropyl)-2-(methyloxy)propanamide], the pIC50 in experiment [1] (setting [3]) is 8.20; in experiment [2] (setting [4]) it was 7.47.

Consider `CC(=O)N[C@@H](Cc1ccc(F)cc1)[C@H](O)CN[C@H]1CC2(CCC2)Oc2ccc(CC(C)(C)C#N)cc21` [compound 161], for which the pIC50 in experiment [1] (setting [5]) is 7.95; in experiment [2] (setting [4]), 7.76.

On to `COCC(=O)N[C@@H](Cc1ccc(F)cc1)[C@H](O)CN[C@H]1CC2(CCC2)Oc2ncc(CC(C)C)cc21` [compound 332], for which the pIC50 in experiment [1] (setting [6]) was 7.96; in experiment [2] (setting [7]), 7.72.

As to `CC(C)(C)Cc1cnc2c(c1)[C@@H](NC[C@@H](O)[C@H](Cc1cccc(F)c1)NC(=O)C(Cl)Cl)CC1(CCC1)O2` [compound 105], the values for the pIC50 in experiment [1] (setting [5]) and in experiment [2] (setting [4]) were 8.39 and 7.53, respectively.

Take `CO[C@H](C)C(=O)N[C@@H](Cc1ccc(Cl)c(F)c1)[C@H](O)CN[C@H]1CC2(CCC2)Oc2ncc(CC(C)(C)C(F)F)cc21` [compound 227]: the figures for the pIC50 in experiment [1] (setting [3]) and in experiment [2] (setting [4]) were 7.82 and 7.50, respectively.

Turning to `COCC(=O)N[C@@H](Cc1ccc(F)c(OC)c1)[C@H](O)CN[C@H]1CC2(CCC2)Oc2ncc(CC(C)(C)C)cc21` [compound 79], the pIC50 is 8.20 in experiment [1] (setting [5]) and 7.83 in experiment [2] (setting [4]).

`CC(=O)N[C@@H](Cc1ccc(F)cc1)[C@H](O)CN[C@H]1C[C@@]2(CC[C@@H]2O)Oc2ncc(CC(C)(C)C)cc21` [compound 114]: the results for the pIC50 in experiment [1] (setting [5]) and in experiment [2] (setting [4]) were 5.80 and 6.04, respectively.

`CC(C)(C)Cc1cnc2c(c1)C(NCC(O)C(Cc1ccc(F)cc1)NC(=O)CF)CC1(CC(O)C1)O2` [compound 230, N-((1S,2R)-3-(((1s,3S,4′S)-6′-(2,2-dimethylpropyl)-3-hydroxy-3′,4′-dihydrospiro[cyclobutane-1,2′-pyrano[2,3-b]pyridin]-4′-yl)amino)-1-((4-fluorophenyl)methyl)-2-hydroxypropyl)-2-fluoroacetamide]: the pIC50 in experiment [1] (setting [3]) was 8.37; in experiment [2] (setting [4]), 8.00.

As for `CCOCC(=O)N[C@@H](Cc1ccc2c(c1)OCO2)[C@H](O)CN[C@H]1CC2(CCC2)Oc2ncc(CC(C)C)cc21` [compound 720], the pIC50 in experiment [1] (BACE enzyme assay IC50, read-out: BACE1 FRET assay) was 7.24; in experiment [2] (Homo sapiens, HEK293, HEK cell-based assay IC50, read-out: HEK cell assay), 6.87.

On to `COCC(=O)N[C@@H](Cc1cccc(F)c1)[C@H](O)CN[C@H]1CC2(CCC2)Oc2ncc(C[C@H](C)C(F)(F)F)cc21` [compound 325], for which the pIC50 in experiment [1] (setting [6]) was 8.43; in experiment [2] (setting [7]), 7.86.

Consider `CC(C)(C)Cc1cnc2c(c1)[C@@H](NC[C@@H](O)[C@H](Cc1cccc(C#N)c1)NC(=O)[C@@H](O)C(F)(F)F)CC1(CCC1)O2` [compound 62], for which the pIC50 was 8.40 in experiment [1] (setting [5]) and 8.01 in experiment [2] (setting [4]).

With `CC(=O)N[C@@H](Cc1ccc(F)cc1)[C@H](O)CN[C@H]1CC2(CCC2)Oc2ncc(NC(=O)C(C)C)cc21` [compound 86], the pIC50 in experiment [1] (setting [5]) was 5.13; in experiment [2] (setting [4]), 5.01.

As for `CO[C@H](C)C(=O)N[C@@H](Cc1ccc(F)cc1)[C@H](O)CN[C@H]1C[C@]2(C[C@H](O)C2)Oc2ncc(CC(C)C)cc21` [compound 250, (2R)—N-((1S,2R)-1-((4-fluorophenyl)methyl)-2-hydroxy-3-(((1s,3S,4′S)-3-hydroxy-6′-(2-methylpropyl)-3′,4′-dihydrospiro[cyclobutane-1,2′-pyrano[2,3-b]pyridin]-4′-yl)amino)propyl)-2-(methyloxy)propanamide], the pIC50 is 7.89 in experiment [1] (setting [3]) and 7.56 in experiment [2] (setting [8]).

For the compound `CO[C@H](C)C(=O)N[C@@H](Cc1ccc2c(c1)OCO2)[C@H](O)CN[C@H]1CC2(CCC2)Oc2ncc(CC(C)C)cc21` [compound 335], the pIC50 in experiment [1] (setting [6]) is 7.42; in experiment [2] (setting [7]) it was 7.12.

In the case of `CC(C)(C)Cc1cnc2c(c1)[C@@H](NC[C@@H](O)[C@H](Cc1ccc3c(c1)OCO3)NC(=O)[C@@H]1CCCO1)CC1(CCC1)O2` [compound 453], the pIC50 in experiment [1] (Table 2, read-out: BACE1 FRET assay) was 7.66; in experiment [2] (Homo sapiens, HEK293, Table 2, HEK cells, read-out: HEK cell assay) it was 7.43.

`COCC(=O)N[C@@H](Cc1ccccc1)[C@H](O)CN[C@H]1CC2(CCC2)Oc2c1cc(CC(C)(C)C)nc2N(C)C` [compound 113]: the pIC50 in experiment [1] (setting [5]) was 7.58; in experiment [2] (setting [4]), 6.30.

As to `COCC(=O)N[C@@H](Cc1ccc2c(c1)OCO2)[C@H](O)CN[C@H]1CC2(CCC2)Oc2c1cc(CC(C)(C)C)nc2N` [compound 129], the pIC50 in experiment [1] (setting [5]) is 6.92; in experiment [2] (setting [4]), 7.51.

As to `CC(=O)N[C@@H](Cc1ccccc1)[C@H](O)CN[C@H]1CC2(CCC2)Oc2ncc(CC(C)(C)CF)cc21` [compound 180], the pIC50 is 8.63 in experiment [1] (setting [5]) and 8.15 in experiment [2] (setting [4]).

As for `CO[C@H](C)C(=O)N[C@@H](Cc1cccc(C#N)c1)[C@H](O)CN[C@H]1CC2(CCC2)Oc2ncc(CC(C)(C)F)cc21` [compound 58], the pIC50 in experiment [1] (setting [5]) is 8.24; in experiment [2] (setting [4]) it was 8.17.

With `COCC(=O)N[C@@H](Cc1ccc(F)cc1)[C@H](O)CN[C@H]1CC2(CCC2)Oc2ncc(CC(C)(C)C(F)F)cc21` [compound 160], the pIC50 in experiment [1] (setting [5]) is 8.05; in experiment [2] (setting [4]) it was 7.41.

As to `COCC(=O)N[C@@H](Cc1cc(F)cc(F)c1)[C@H](O)CN[C@H]1CC2(CCC2)Oc2ncc(CC(C)(C)F)cc21` [compound 286], the pIC50 is 8.48 in experiment [1] (setting [3]) and 8.22 in experiment [2] (setting [4]).

Consider `COCC(=O)N[C@@H](Cc1ccc(F)c(OC(F)F)c1)[C@H](O)CN[C@H]1CC2(CCC2)Oc2ncc(CC(C)(C)C)cc21` [compound 214], for which the values for the pIC50 in experiment [1] (setting [3]) and in experiment [2] (setting [4]) were 8.06 and 8.04, respectively.

Turning to `COC(C)C(=O)NC(Cc1ccc2c(c1)OCO2)C(O)CNC1CC2(CC(O)C2)Oc2ccc(CC(C)(C)C)cc21` [compound 268, (2R)—N-((1S,2R)-1-(1,3-benzodioxol-5-ylmethyl)-3-(((2s,3′S,4S)-6-(2,2-dimethylpropyl)-3′-hydroxy-3,4-dihydrospiro[chromene-2,1′-cyclobutan]-4-yl)amino)-2-hydroxypropyl)-2-(methyloxy)propanamide], the figures for the pIC50 in experiment [1] (setting [3]) and in experiment [2] (setting [8]) were 7.73 and 7.82, respectively.

For `CC(=O)N[C@@H](Cc1cc(F)cc(F)c1)[C@H](O)CN[C@H]1CC2(CCC2)Oc2ncc(CC(C)(C)C#N)cc21` [compound 91], the pIC50 in experiment [1] (setting [5]) is 8.35; in experiment [2] (setting [4]), 8.19.

For the compound `COCC(=O)N[C@@H](Cc1ccc2c(c1)OCO2)[C@@H](CN[C@H]1CC2(CCC2)Oc2ncc([C@H](F)C(C)(C)C)cc21)OC` [compound 196], the pIC50 in experiment [1] (setting [3]) was 5.58; in experiment [2] (setting [4]) it was 5.40.

Take `COCC(=O)N[C@@H](Cc1cccc(C(N)=O)c1)[C@H](O)CN[C@H]1CC2(CCC2)Oc2ncc(CC(C)(C)F)cc21` [compound 863]: the IC50 in experiment [1] (BACE enzyme assay, IC50's in uM, read-out: BACE1 FRET assay) stood at 0.013 µM; in experiment [2] (Homo sapiens, HEK293, cell-based assay, HEK cells, IC50's in uM, read-out: HEK cell assay) it was 0.033 µM.

`COCC(=O)N[C@@H](Cc1cccc(F)c1)[C@H](O)CN[C@H]1CC2(CCC2)Oc2cnc(CC(C)(C)F)cc21` [compound 252]: the pIC50 in experiment [1] (setting [3]) was 7.63; in experiment [2] (setting [4]), 7.27.

With `CC(=O)N[C@@H](Cc1cccc(F)c1)[C@H](O)CN[C@H]1CC2(CCC2)Oc2ncc(C[C@@H](C)C(F)(F)F)cc21` [compound 315], the pIC50 is 8.21 in experiment [1] (setting [6]) and 8.03 in experiment [2] (setting [7]).

As for `COCC(=O)N[C@@H](Cc1ccccc1)[C@H](O)CN[C@H]1CC2(CCC2)Oc2ncc(CC(C)C)cc21` [compound 328], the pIC50 in experiment [1] (setting [6]) is 8.04; in experiment [2] (setting [7]) it was 7.64.

With `CC(=O)NC(Cc1cccc(F)c1)C(O)CNC1CC2(CC(O)C2)Oc2cnccc21` [compound 237, N-((1S,2R)-1-((3-fluorophenyl)methyl)-2-hydroxy-3-(((1r,3R,4′S)-3-hydroxy-3′,4′-dihydrospiro[cyclobutane-1,2′-pyrano[2,3-c]pyridin]-4′-yl)amino)propyl)acetamide], the pIC50 in experiment [1] (setting [3]) is 5.19; in experiment [2] (setting [4]), 5.61.

`CC(=O)NC(Cc1ccc(F)cc1)C(O)CNC1CC2(CCC2)Oc2ncc(CC(C)C(F)F)cc21` [compound 198, N-((1S,2R)-3-(((4′S)-6′-((2S)-3,3-difluoro-2-methylpropyl)-3′4′-dihydrospiro[cyclobutane-1,2′-pyrano[2,3-b]pyridin]-4′-yl)amino)-1-((4-fluorophenyl)methyl)-2-hydroxypropyl)acetamide]: the pIC50 in experiment [1] (setting [3]) is 7.54; in experiment [2] (setting [4]), 7.49.

As for `CO[C@H](C)C(=O)N[C@@H](Cc1ccc2c(c1)OCO2)[C@H](O)CN[C@H]1CC2(CCC2)Oc2nc(F)c(CC(C)C)cc21` [compound 336], the pIC50 in experiment [1] (setting [6]) was 6.87; in experiment [2] (setting [7]) it was 6.39.

As to `CO[C@H](C)C(=O)N[C@@H](Cc1ccc2c(c1)OCO2)[C@H](O)CN[C@H]1CC2(CCC2)Oc2ncc(CC(C)(C)CF)cc21` [compound 190], the pIC50 is 7.62 in experiment [1] (setting [3]) and 7.36 in experiment [2] (setting [4]).
